The IC50 is the point on the concentration scale where inhibition reaches its midpoint.

Among the data in patent publication US20060116390A1, “Hepatitis c virus inhibitors” (priority 2003, published 2006) are IC50 values, retold here.

SMILES strings stand for the structures. Like-named read-outs stand apart in the source and are kept apart here.

The experiment deals with HCV proteins in Rep5.1 cells (replicon cell line). Put plainly: Inhibitory activity of HCV: cell-based ELISA in replicon cell line Rep5.1 (decrease of HCV proteins). Also noted: species or system hepatitis C virus. Conditions: Rep5.1 cells, 72 hours with drug. An outline of the steps: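 Rep5.1 replicon cells (5000/well, DMEM-10 with 500 μg/ml G418) were given serially diluted drug 4 h after seeding. After 72 h, cells were fixed in methanol/acetone and HCV proteins detected by cell-based ELISA using replicon-specific patient plasma antibodies. IC50 is the concentration giving 50% protein decrease versus the no-drug control.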
For orientation: In an ELISA, binding on a coated surface is turned into a signal by an enzyme label.

[1] abbreviates: concentration at which 50% of HCV proteins was decreased, Table 2, read-out: IC50.
The mark [2] stands for this setting: Hepatitis C virus, 72 h, concentration at which 50% of HCV proteins was decreased, Table 2, read-out: IC50.
Setting [3] is: Hepatitis C virus, 72 h, decrease of HCV proteins measured by HCV antibody, Table 1, read-out: Level (IC50 values classified).

For the compound `CCCOCC#CCOC(=O)C1=C(C)NC(=S)NC1` [Compound 237, 6-methyl-2-thioxo-1,2,3,4-tetrahydro-pyrimidine-5-carboxylic acid 4-propoxy-but-2-inyl ester], under setting [1], the IC50 came out at 1.7 µM.
In the case of `COc1ccc(CCCOC(=O)C2=C(C)NC(=S)NC2)cc1` [Compound 88, 6-methyl-2-thioxo-1,2,3,4-tetrahydro-pyrimidine-5-carboxylic acid 3-(4-methoxy-phenyl)-propyl ester], the IC50 runs as follows: under setting [2], 0.7 µM; under setting [3], < 1 µM.
Consider `CC1=C(C(=O)OCCc2ccc(Cl)s2)C(CO)NC(=S)N1` (centres unmarked) [1″, 4-hydroxymethyl-6-methyl-2-thioxo-1,2,3,4-tetrahydro-pyrimidine-5-carboxylic acid 2-(5-chloro-thiophen-2-yl)-ethyl ester], for which the IC50 was 1.6 µM under setting [2] and 1 to 10 µM under setting [3].
Consider `CC1=C(C(=O)OCCc2cccc([N+](=O)[O-])c2)C(COC(=O)OCC2COC(C)(C)O2)NC(=S)N1` (centres unmarked) [77″, 4-(2,2-dimethyl-[1,3]dioxolan-4-ylmethoxycarbonyloxymethyl)-6-methyl-2-thioxo-1,2,3,4-tetrahydro-pyrimidine-5-carboxylic acid 2-(3-nitro-phenyl)-ethyl ester], for which the IC50 under setting [2] stood at 5.6 µM and the IC50 under setting [3] was 1 to 10 µM.
The matching figures for `CC1=C(C(=O)OCc2ccc(Cl)cc2)CNC(=S)N1` [Compound 43, 6-methyl-2-thioxo-1,2,3,4-tetrahydro-pyrimidine-5-carboxylic acid 4-chloro-benzyl ester]: < 0.4 µM and < 1 µM.
As for `CC1=C(C(=O)OCCc2ccc(Cl)cc2)CNC(=S)N1` [Compound 94, 6-methyl-2-thioxo-1,2,3,4-tetrahydro-pyrimidine-5-carboxylic acid 2-(4-chloro-phenyl)-ethyl ester], the IC50 reads like this: under setting [2], < 0.4 µM; under setting [3], < 1 µM.
Regarding `CC1=C(C(=O)OC2CCCC2)CNC(=S)N1` [Compound 67, 6-methyl-2-thioxo-1,2,3,4-tetrahydro-pyrimidine-5-carboxylic acid cyclopentyl ester], the IC50 by setting is: under setting [2], 6 µM; under setting [3], 1 to 10 µM.
On to `CC1=C(C(=O)OCc2ccc(-c3cccs3)s2)CNC(=S)N1` [Compound 218, 6-methyl-2-thioxo-1,2,3,4-tetrahydro-pyrimidine-5-carboxylic acid[2,2′]bithiophenyl-5-ylmethyl ester], for which, under setting [1], the IC50 was < 0.4 µM.
Take `CC1=C(C(=O)OCCc2ccc(C)c(Cl)c2)C(CO)NC(=S)N1` (centres unmarked) [74″, 4-hydroxymethyl-6-methyl-2-thioxo-1,2,3,4-tetrahydro-pyrimidine-5-carboxylic acid 2-(3-chloro-4-methyl-phenyl)-ethyl ester]: the IC50 reads like this: under setting [2], < 0.4 µM; under setting [3], < 1 µM.
As for `COc1ccc(CCOC(=O)C2=C(C)NC(=S)NC2CO)cc1C` (centres unmarked) [69″, 4-hydroxymethyl-6-methyl-2-thioxo-1,2,3,4-tetrahydro-pyrimidine-5-carboxylic acid 2-(4-methoxy-3-methyl-phenyl)-ethyl ester], the IC50 runs as follows: under setting [2], 0.8 µM; under setting [3], < 1 µM.
The like results for `O=C(OCCc1ccsc1)C1=C(CO)NC(=S)NC1` [67′, 6-hydroxymethyl-2-thioxo-1,2,3,4-tetrahydro-pyrimidine-5-carboxylic acid 2-thiophen-3-yl-ethyl ester] were, in that order, > 100 µM and > 20 µM.
`CC1=C(C(=O)OCC#Cc2cccs2)CNC(=S)N1` [Compound 239, 6-methyl-2-thioxo-1,2,3,4-tetrahydro-pyrimidine-5-carboxylic acid 3-thiophen-2-yl-prop-2-inyl ester]: the IC50 under setting [1] is < 0.4 µM.
For the compound `CC1=C(C(=O)OCCCc2cccnc2)CNC(=S)N1` [Compound 158, 6-methyl-2-thioxo-1,2,3,4-tetrahydro-pyrimidine-5-carboxylic acid 3-pyridin-3-yl-propyl ester], the IC50 under setting [2] is > 100 µM and the IC50 under setting [3] was > 20 µM.
As to `CC1=C(C(=O)OCCc2ccc(Cl)cc2Cl)C(CO)NC(=S)N1` (centres unmarked) [43″, 4-hydroxymethyl-6-methyl-2-thioxo-1,2,3,4-tetrahydro-pyrimidine-5-carboxylic acid 2-(2,4-dichloro-phenyl)-ethyl ester], the IC50 under setting [2] was < 0.4 µM and the IC50 under setting [3] was < 1 µM.
As to `CC1=C(C(=O)OCCCc2ccccc2)C(CF)NC(=S)N1` (centres unmarked) [31′, 4-fluoromethyl-6-methyl-2-thioxo-1,2,3,4-tetrahydro-pyrimidine-5-carboxylic acid 3-phenyl-propyl ester], the IC50 runs as follows: under setting [2], 0.4 µM; under setting [3], < 1 µM.
`CC1=C(C(=O)OCCc2ccc(F)cc2)CNC(=S)N1` [Compound 93, 6-methyl-2-thioxo-1,2,3,4-tetrahydro-pyrimidine-5-carboxylic acid 2-(4-fluoro-phenyl)-ethyl ester]: the half-inhibitory concentration (IC50) under setting [1] was found to be 0.7 µM.
As for `CC1=C(C(=O)OCCc2cccc(C)c2)CNC(=S)N1` [Compound 172, 6-methyl-2-thioxo-1,2,3,4-tetrahydro-pyrimidine-5-carboxylic acid 2-m-tolyl-ethyl ester], the IC50 is < 0.4 µM under setting [2] and < 1 µM under setting [3].
In the case of `CC1=C(C(=O)OCCc2ccccc2)C(CF)NC(=S)N1` (centres unmarked) [33′, 4-fluoromethyl-6-methyl-2-thioxo-1,2,3,4-tetrahydro-pyrimidine-5-carboxylic acid phenethyl ester], the IC50 by setting is: under setting [2], 1 µM; under setting [3], < 1 µM.
The like results for `CC1=C(C(=O)OCc2ccc(Br)cc2)CNC(=S)N1` [Compound 60, 6-methyl-2-thioxo-1,2,3,4-tetrahydro-pyrimidine-5-carboxylic acid 4-bromo-benzyl ester] were, in that order, < 0.5 µM and < 1 µM.
With `CC1=C(C(=O)OCc2ccc(F)cc2Cl)C(CO)NC(=S)N1` (centres unmarked) [48″, 4-hydroxymethyl-6-methyl-2-thioxo-1,2,3,4-tetrahydro-pyrimidine-5-carboxylic acid 2-chloro-4-fluoro-benzyl ester], the IC50 is, setting by setting: under setting [2], 43 µM; under setting [3], > 20 µM.
The matching figures for `CC1=C(C(=O)OCc2cc(C)cc(C)c2)CNC(=S)N1` [Compound 82, 6-methyl-2-thioxo-1,2,3,4-tetrahydro-pyrimidine-5-carboxylic acid 3,5-dimethyl-benzyl ester]: 0.3 µM and < 1 µM.
As to `CC1=C(C(=O)OCCc2ccccc2[N+](=O)[O-])C(CF)NC(=S)N1` (centres unmarked) [77′, 4-fluoromethyl-6-methyl-2-thioxo-1,2,3,4-tetrahydro-pyrimidine-5-carboxylic acid 2-(2-nitro-phenyl)-ethyl ester], the IC50 runs as follows: under setting [2], 39 µM; under setting [3], > 20 µM.
Take `CC1=C(C(=O)OCCc2cccs2)CNC(=S)N1` [Compound 206, 6-methyl-2-thioxo-1,2,3,4-tetrahydro-pyrimidine-5-carboxylic acid 2-thiophen-2-yl-ethyl ester]: the IC50 is, setting by setting: under setting [2], 0.6 µM; under setting [3], < 1 µM.
Regarding `CC1=C(C(=O)OCC#CCOCc2ccccc2)CNC(=S)N1` [Compound 214, 6-methyl-2-thioxo-1,2,3,4-tetrahydro-pyrimidine-5-carboxylic acid 4-benzyloxy-but-2-inyl ester], the IC50 under setting [1] was < 0.4 µM.
`CC1=C(C(=O)OCCc2cccc(Cl)c2)CNC(=S)N1` [Compound 117, 6-methyl-2-thioxo-1,2,3,4-tetrahydro-pyrimidine-5-carboxylic acid 2-(3-chloro-phenyl)-ethyl ester]: the IC50 is 0.4 µM under setting [2] and < 1 µM under setting [3].
For `CC1=C(C(=O)SCc2ccco2)C(CF)NC(=S)N1` (centres unmarked) [39′, 4-fluoromethyl-6-methyl-2-thioxo-1,2,3,4-tetrahydro-pyrimidine-5-carbothioic acid S-furan-2-ylmethyl ester], the IC50 by setting is: under setting [2], 2.6 µM; under setting [3], 1 to 10 µM.
For `CC1=C(C(=O)OCc2ccc(Br)s2)CNC(=S)N1` [Compound 203, 6-methyl-2-thioxo-1,2,3,4-tetrahydro-pyrimidine-5-carboxylic acid 5-bromo-thiophen-2-ylmethyl ester], the concentration for half-maximal inhibition (IC50) is < 0.4 µM under setting [2] and < 1 µM under setting [3].
Take `CC1=C(C(=O)OCCc2nc3ccccc3o2)CNC(=S)N1` [Compound 265, 6-methyl-2-thioxo-1,2,3,4-tetrahydro-pyrimidine-5-carboxylic acid 2-benzoxazol-2-yl-ethyl ester]: the IC50 by setting is: under setting [2], 6 µM; under setting [3], 1 to 10 µM.
Take `CC1=C(C(=O)OCc2cc(C)on2)CNC(=S)N1` [47′, 6-methyl-2-thioxo-1,2,3,4-tetrahydro-pyrimidine-5-carboxylic acid 5-methyl-isoxazol-3-ylmethyl ester]: the IC50 is 100 µM under setting [2] and > 20 µM under setting [3].
On to `CC1=C(C(=O)OCc2cc(Cl)ccc2[N+](=O)[O-])CNC(=S)N1` [Compound 143, 6-methyl-2-thioxo-1,2,3,4-tetrahydro-pyrimidine-5-carboxylic acid 5-chloro-2-nitro-benzyl ester], for which the half-inhibitory concentration (IC50) under setting [2] was 0.4 µM and the IC50 under setting [3] was < 1 µM.
In the case of `CCCCCCOC(=O)C1=C(C)NC(=S)NC1` [Compound 30, 6-methyl-2-thioxo-1,2,3,4-tetrahydro-pyrimidine-5-carboxylic acid hexyl ester], the IC50 is 0.1 µM under setting [2] and < 1 µM under setting [3].
On to `CC1=C(C(=O)OC(C)(C)c2ccccc2)CNC(=S)N1` [Compound 27, 6-methyl-2-thioxo-1,2,3,4-tetrahydro-pyrimidine-5-carboxylic acid 1-methyl-1-phenyl-ethyl ester], for which the 50% inhibitory concentration (IC50) was 47 µM under setting [2] and > 20 µM under setting [3].
